Data reported in patent US20050267014A1, “Pharmaceutical composition comprising factor VII polypeptides and tranexamic acid” (Novo Nordisk HealthCare A/G, priority 2001, published 2005).

Experiments:
whole human blood = assay: Whole blood rotation thrombelastography (ROTEG) clot strength; conditions: tranexamic acid in addition to FVIIa, tPA 2 nM
[1] = system: clots formed by normal human plasma; assay: Clot lysis assay, normal human plasma diluted 10-fold, turbidity at 650 nm; assay type: biochemical; conditions: in the presence of 10 nM FVIIa
Protocol: Clot lysis assay: Normal human plasma diluted 10-fold with buffer (20 mM HEPES, 150 mM NaCl, 5 mM CaCl, pH 7.4) containing lapidated recombinant tissue factor (Innovin, Dade Behring, 2000-fold dilution), rFVIIa (Novo Nordisk A/S Bagsvaerd, Denmark, various concentrations) and t-PA (American Diagnostica, 8 nM) was added to 96-well ELISA plates and turbidity at 650 nm was measured over time at room temperature. Where indicated, Tranexamic acid (Sigma, various concentrations) was included.

In the case of `NC[C@H]1CC[C@H](C(=O)O)CC1` [Tranexamic acid], the “mechanical strength of the clot” value (whole human blood) was “increased the mechanical strength of the clot”, the “overall survival time of the clot” value (whole human blood) was “increased” and the “Tranexamic acid concentration at which prolongation of clot lysis time was optimal” value [1] was 1 µM. For the same compound, the “effect on clot lysis time” value ([1]; t-PA 8 nM) was “further prolongation of the clot lysis time”.
